# Experimental data from patent US9179678B2, “Substituted [1,2,4]triazoles and substituted tetrazoles as herbicides” (SYNGENTA LIMITED, priority 2012, dated 2015).
# Test system: Solanum nigrum (SOLNI)
# Assay: Post-emergence glasshouse herbicide test
# Type: in vivo
# Settings: POST Application, 1000 g/h, after 13 days
# Description: (§1) Seeds of a variety of test species are sown in standard soil in pots (Alopecurus myosuroides (ALOMY), Setaria faberi (SETFA), Echinochloa crus-galli (ECHCG), Solanum nigrum (SOLNI), Amaranthus retoflexus (AMARE), Ipomoea hederacea (IPOHE)). After cultivation for one day (pre-emergence) or after 8 days cultivation (post-emergence) under controlled conditions in a glasshouse (at 24/16° C., day/night; 14 hours light; 65% humidity), the plants are sprayed with an aqueous spray solution derived from the formulation of the technical active ingredient in acetone/water (50:50) solution containing 0.5% Tween 20 (polyoxyethelyene sorbitan monolaurate, CAS RN 9005-64-5). Compounds ae applied at 1000 g/h. The test plants are then grown in a glasshouse under controlled conditions in a glasshouse (at 24/16° C., day/night; 14 hours light; 65% humidity) and watered twice daily. After 13 days for pre and post-emergence, the test is evaluated for the percentage damage caused to the plant. The biological activities are shown in the following table on a five point scale (5=80-100%; 4=60-79%; 3=40-59%; 2=20-39%; 1=0-19%).
row,SMILES,"percentage damage caused to the plant, SOLNI"
1,Cn1nnnc1NC(=O)c1nc2cccnc2n(C)c1=O [Compound 4.001],5 (5=80-100%)
2,Cn1nnnc1NC(=O)c1nc2ccccc2n(-c2cccc(Br)c2)c1=O [Compound 5.024],5 (5=80-100%)
3,Cn1nnnc1NC(=O)c1nc2ccccc2n(-c2ccc(I)cc2)c1=O [Compound 5.042],5 (5=80-100%)
4,Cn1nnnc1NC(=O)c1nc2ccccc2n(-c2ccc(F)cc2)c1=O [Compound 5.029],5 (5=80-100%)
5,Cc1ccc(-n2c(=O)c(C(=O)Nc3nnnn3C)nc3ccccc32)cc1 [Compound 5.012],5 (5=80-100%)

# Test system: Amaranthus retoflexus (AMARE)
# Assay: Post-emergence glasshouse herbicide test
# Type: in vivo
# Settings: POST Application, 1000 g/h, after 13 days
# Description: as §1
row,SMILES,"percentage damage caused to the plant, AMARE"
1,Cn1nnnc1NC(=O)c1nc2cccnc2n(C)c1=O [Compound 4.001],5 (5=80-100%)
2,Cn1nnnc1NC(=O)c1nc2ccccc2n(-c2cccc(Br)c2)c1=O [Compound 5.024],5 (5=80-100%)
3,Cn1nnnc1NC(=O)c1nc2ccccc2n(-c2ccc(I)cc2)c1=O [Compound 5.042],5 (5=80-100%)
4,Cn1nnnc1NC(=O)c1nc2ccccc2n(-c2ccc(F)cc2)c1=O [Compound 5.029],5 (5=80-100%)
5,Cc1ccc(-n2c(=O)c(C(=O)Nc3nnnn3C)nc3ccccc32)cc1 [Compound 5.012],5 (5=80-100%)

# Test system: Echinochloa crus-galli (ECHCG)
# Assay: Post-emergence glasshouse herbicide test
# Type: in vivo
# Settings: POST Application, 1000 g/h, after 13 days
# Description: as §1
row,SMILES,"percentage damage caused to the plant, ECHCG"
1,Cn1nnnc1NC(=O)c1nc2cccnc2n(C)c1=O [Compound 4.001],5 (5=80-100%)
2,Cn1nnnc1NC(=O)c1nc2ccccc2n(-c2cccc(Br)c2)c1=O [Compound 5.024],5 (5=80-100%)
3,Cn1nnnc1NC(=O)c1nc2ccccc2n(-c2ccc(I)cc2)c1=O [Compound 5.042],3 (3=40-59%)
4,Cn1nnnc1NC(=O)c1nc2ccccc2n(-c2ccc(F)cc2)c1=O [Compound 5.029],5 (5=80-100%)
5,Cc1ccc(-n2c(=O)c(C(=O)Nc3nnnn3C)nc3ccccc32)cc1 [Compound 5.012],5 (5=80-100%)

# Test system: Alopecurus myosuroides (ALOMY)
# Assay: Post-emergence glasshouse herbicide test
# Type: in vivo
# Settings: POST Application, 1000 g/h, after 13 days
# Description: as §1
row,SMILES,"percentage damage caused to the plant, ALOMY"
1,Cn1nnnc1NC(=O)c1nc2cccnc2n(C)c1=O [Compound 4.001],1 (1=0-19%)
2,Cn1nnnc1NC(=O)c1nc2ccccc2n(-c2cccc(Br)c2)c1=O [Compound 5.024],5 (5=80-100%)
3,Cn1nnnc1NC(=O)c1nc2ccccc2n(-c2ccc(I)cc2)c1=O [Compound 5.042],2 (2=20-39%)
4,Cn1nnnc1NC(=O)c1nc2ccccc2n(-c2ccc(F)cc2)c1=O [Compound 5.029],4 (4=60-79%)
5,Cc1ccc(-n2c(=O)c(C(=O)Nc3nnnn3C)nc3ccccc32)cc1 [Compound 5.012],2 (2=20-39%)

# Test system: Ipomoea hederacea (IPOHE)
# Assay: Post-emergence glasshouse herbicide test
# Type: in vivo
# Settings: POST Application, 1000 g/h, after 13 days
# Description: as §1
row,SMILES,"percentage damage caused to the plant, IPOHE"
1,Cn1nnnc1NC(=O)c1nc2cccnc2n(C)c1=O [Compound 4.001],4 (4=60-79%)
2,Cn1nnnc1NC(=O)c1nc2ccccc2n(-c2cccc(Br)c2)c1=O [Compound 5.024],4 (4=60-79%)
3,Cn1nnnc1NC(=O)c1nc2ccccc2n(-c2ccc(I)cc2)c1=O [Compound 5.042],5 (5=80-100%)
4,Cn1nnnc1NC(=O)c1nc2ccccc2n(-c2ccc(F)cc2)c1=O [Compound 5.029],5 (5=80-100%)
5,Cc1ccc(-n2c(=O)c(C(=O)Nc3nnnn3C)nc3ccccc32)cc1 [Compound 5.012],5 (5=80-100%)

# Test system: Setaria faberi (SETFA)
# Assay: Post-emergence glasshouse herbicide test
# Type: in vivo
# Settings: POST Application, 1000 g/h, after 13 days
# Description: as §1, with “Compounds ae applied at 1000 g/h.” left out
row,SMILES,"percentage damage caused to the plant, SETFA"
1,Cn1nnnc1NC(=O)c1nc2cccnc2n(C)c1=O [Compound 4.001],2 (2=20-39%)
2,Cn1nnnc1NC(=O)c1nc2ccccc2n(-c2cccc(Br)c2)c1=O [Compound 5.024],5 (5=80-100%)
3,Cn1nnnc1NC(=O)c1nc2ccccc2n(-c2ccc(I)cc2)c1=O [Compound 5.042],5 (5=80-100%)
4,Cn1nnnc1NC(=O)c1nc2ccccc2n(-c2ccc(F)cc2)c1=O [Compound 5.029],5 (5=80-100%)
5,Cc1ccc(-n2c(=O)c(C(=O)Nc3nnnn3C)nc3ccccc32)cc1 [Compound 5.012],4 (4=60-79%)

# Test system: Solanum nigrum (SOLNI)
# Assay: Pre-emergence glasshouse herbicide test
# Type: in vivo
# Settings: PRE Application, 1000 g/h, after 13 days
# Description: as §1
row,SMILES,"percentage damage caused to the plant, SOLNI"
1,Cn1nnnc1NC(=O)c1nc2cccnc2n(C)c1=O [Compound 4.001],5 (5=80-100%)
2,Cn1nnnc1NC(=O)c1nc2ccccc2n(-c2cccc(Br)c2)c1=O [Compound 5.024],5 (5=80-100%)
3,Cn1nnnc1NC(=O)c1nc2ccccc2n(-c2ccc(I)cc2)c1=O [Compound 5.042],5 (5=80-100%)
4,Cn1nnnc1NC(=O)c1nc2ccccc2n(-c2ccc(F)cc2)c1=O [Compound 5.029],5 (5=80-100%)
5,Cc1ccc(-n2c(=O)c(C(=O)Nc3nnnn3C)nc3ccccc32)cc1 [Compound 5.012],5 (5=80-100%)

# Test system: Amaranthus retoflexus (AMARE)
# Assay: Pre-emergence glasshouse herbicide test
# Type: in vivo
# Settings: PRE Application, 1000 g/h, after 13 days
# Description: as §1
row,SMILES,"percentage damage caused to the plant, AMARE"
1,Cn1nnnc1NC(=O)c1nc2cccnc2n(C)c1=O [Compound 4.001],5 (5=80-100%)
2,Cn1nnnc1NC(=O)c1nc2ccccc2n(-c2cccc(Br)c2)c1=O [Compound 5.024],5 (5=80-100%)
3,Cn1nnnc1NC(=O)c1nc2ccccc2n(-c2ccc(I)cc2)c1=O [Compound 5.042],5 (5=80-100%)
4,Cn1nnnc1NC(=O)c1nc2ccccc2n(-c2ccc(F)cc2)c1=O [Compound 5.029],5 (5=80-100%)
5,Cc1ccc(-n2c(=O)c(C(=O)Nc3nnnn3C)nc3ccccc32)cc1 [Compound 5.012],5 (5=80-100%)

# Test system: Echinochloa crus-galli (ECHCG)
# Assay: Pre-emergence glasshouse herbicide test
# Type: in vivo
# Settings: PRE Application, 1000 g/h, after 13 days
# Description: as §1
row,SMILES,"percentage damage caused to the plant, ECHCG"
1,Cn1nnnc1NC(=O)c1nc2cccnc2n(C)c1=O [Compound 4.001],4 (4=60-79%)
2,Cn1nnnc1NC(=O)c1nc2ccccc2n(-c2cccc(Br)c2)c1=O [Compound 5.024],5 (5=80-100%)
3,Cn1nnnc1NC(=O)c1nc2ccccc2n(-c2ccc(I)cc2)c1=O [Compound 5.042],3 (3=40-59%)
4,Cn1nnnc1NC(=O)c1nc2ccccc2n(-c2ccc(F)cc2)c1=O [Compound 5.029],5 (5=80-100%)
5,Cc1ccc(-n2c(=O)c(C(=O)Nc3nnnn3C)nc3ccccc32)cc1 [Compound 5.012],5 (5=80-100%)

# Test system: Alopecurus myosuroides (ALOMY)
# Assay: Pre-emergence glasshouse herbicide test
# Type: in vivo
# Settings: PRE Application, 1000 g/h, after 13 days
# Description: as §1
row,SMILES,"percentage damage caused to the plant, ALOMY"
1,Cn1nnnc1NC(=O)c1nc2cccnc2n(C)c1=O [Compound 4.001],1 (1=0-19%)
2,Cn1nnnc1NC(=O)c1nc2ccccc2n(-c2cccc(Br)c2)c1=O [Compound 5.024],5 (5=80-100%)
3,Cn1nnnc1NC(=O)c1nc2ccccc2n(-c2ccc(I)cc2)c1=O [Compound 5.042],2 (2=20-39%)
4,Cn1nnnc1NC(=O)c1nc2ccccc2n(-c2ccc(F)cc2)c1=O [Compound 5.029],5 (5=80-100%)
5,Cc1ccc(-n2c(=O)c(C(=O)Nc3nnnn3C)nc3ccccc32)cc1 [Compound 5.012],2 (2=20-39%)

# Test system: Ipomoea hederacea (IPOHE)
# Assay: Pre-emergence glasshouse herbicide test
# Type: in vivo
# Settings: PRE Application, 1000 g/h, after 13 days
# Description: as §1
row,SMILES,"percentage damage caused to the plant, IPOHE"
1,Cn1nnnc1NC(=O)c1nc2cccnc2n(C)c1=O [Compound 4.001],3 (3=40-59%)
2,Cn1nnnc1NC(=O)c1nc2ccccc2n(-c2cccc(Br)c2)c1=O [Compound 5.024],5 (5=80-100%)
3,Cn1nnnc1NC(=O)c1nc2ccccc2n(-c2ccc(I)cc2)c1=O [Compound 5.042],5 (5=80-100%)
4,Cn1nnnc1NC(=O)c1nc2ccccc2n(-c2ccc(F)cc2)c1=O [Compound 5.029],5 (5=80-100%)
5,Cc1ccc(-n2c(=O)c(C(=O)Nc3nnnn3C)nc3ccccc32)cc1 [Compound 5.012],5 (5=80-100%)

# Test system: Setaria faberi (SETFA)
# Assay: Pre-emergence glasshouse herbicide test
# Type: in vivo
# Settings: PRE Application, 1000 g/h, after 13 days
# Description: as §1
row,SMILES,"percentage damage caused to the plant, SETFA"
1,Cn1nnnc1NC(=O)c1nc2cccnc2n(C)c1=O [Compound 4.001],1 (1=0-19%)
2,Cn1nnnc1NC(=O)c1nc2ccccc2n(-c2cccc(Br)c2)c1=O [Compound 5.024],5 (5=80-100%)
3,Cn1nnnc1NC(=O)c1nc2ccccc2n(-c2ccc(I)cc2)c1=O [Compound 5.042],2 (2=20-39%)
4,Cn1nnnc1NC(=O)c1nc2ccccc2n(-c2ccc(F)cc2)c1=O [Compound 5.029],5 (5=80-100%)
5,Cc1ccc(-n2c(=O)c(C(=O)Nc3nnnn3C)nc3ccccc32)cc1 [Compound 5.012],3 (3=40-59%)
